{"source": "ChEMBL document CHEMBL4507286", "about": "(2021)", "key": {"[1]": {"target": "Sigma non-opioid intracellular receptor 1 (Homo sapiens) (UniProt Q99720)", "details": "Compound concentration 10.0 uM"}, "[2]": {"target": "Protein kinase C theta type (Homo sapiens) (UniProt Q04759)", "sequence (Q04759 whole entry, looked up)": "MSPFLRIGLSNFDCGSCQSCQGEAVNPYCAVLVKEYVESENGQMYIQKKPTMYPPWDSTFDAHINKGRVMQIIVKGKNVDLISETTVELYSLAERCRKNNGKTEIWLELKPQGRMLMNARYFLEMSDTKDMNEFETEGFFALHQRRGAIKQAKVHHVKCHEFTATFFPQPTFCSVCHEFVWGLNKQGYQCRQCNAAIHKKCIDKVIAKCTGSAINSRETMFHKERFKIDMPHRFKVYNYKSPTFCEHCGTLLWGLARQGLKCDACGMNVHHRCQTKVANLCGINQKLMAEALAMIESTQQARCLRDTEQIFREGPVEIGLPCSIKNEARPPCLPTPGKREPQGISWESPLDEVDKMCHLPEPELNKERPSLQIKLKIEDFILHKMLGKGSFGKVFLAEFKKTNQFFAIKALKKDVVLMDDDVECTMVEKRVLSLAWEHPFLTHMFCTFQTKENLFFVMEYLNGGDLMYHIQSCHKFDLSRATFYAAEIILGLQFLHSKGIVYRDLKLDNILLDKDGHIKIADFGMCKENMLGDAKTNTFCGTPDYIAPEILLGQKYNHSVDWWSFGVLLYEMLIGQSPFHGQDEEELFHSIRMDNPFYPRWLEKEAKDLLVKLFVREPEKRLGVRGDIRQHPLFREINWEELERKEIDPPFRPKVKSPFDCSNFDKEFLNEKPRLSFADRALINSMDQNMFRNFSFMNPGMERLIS"}, "[3]": {"target": "Myosin light chain kinase, smooth muscle (Homo sapiens) (UniProt Q15746)"}, "[4]": {"target": "Delta-type opioid receptor (Homo sapiens) (UniProt P41143)", "details": "Compound concentration 10.0 uM"}, "[5]": {"target": "Dual specificity mitogen-activated protein kinase kinase 3 (Homo sapiens) (UniProt P46734)"}, "[6]": {"target": "Mitogen-activated protein kinase kinase kinase 13 (Homo sapiens) (UniProt O43283)", "sequence (O43283 whole entry)": "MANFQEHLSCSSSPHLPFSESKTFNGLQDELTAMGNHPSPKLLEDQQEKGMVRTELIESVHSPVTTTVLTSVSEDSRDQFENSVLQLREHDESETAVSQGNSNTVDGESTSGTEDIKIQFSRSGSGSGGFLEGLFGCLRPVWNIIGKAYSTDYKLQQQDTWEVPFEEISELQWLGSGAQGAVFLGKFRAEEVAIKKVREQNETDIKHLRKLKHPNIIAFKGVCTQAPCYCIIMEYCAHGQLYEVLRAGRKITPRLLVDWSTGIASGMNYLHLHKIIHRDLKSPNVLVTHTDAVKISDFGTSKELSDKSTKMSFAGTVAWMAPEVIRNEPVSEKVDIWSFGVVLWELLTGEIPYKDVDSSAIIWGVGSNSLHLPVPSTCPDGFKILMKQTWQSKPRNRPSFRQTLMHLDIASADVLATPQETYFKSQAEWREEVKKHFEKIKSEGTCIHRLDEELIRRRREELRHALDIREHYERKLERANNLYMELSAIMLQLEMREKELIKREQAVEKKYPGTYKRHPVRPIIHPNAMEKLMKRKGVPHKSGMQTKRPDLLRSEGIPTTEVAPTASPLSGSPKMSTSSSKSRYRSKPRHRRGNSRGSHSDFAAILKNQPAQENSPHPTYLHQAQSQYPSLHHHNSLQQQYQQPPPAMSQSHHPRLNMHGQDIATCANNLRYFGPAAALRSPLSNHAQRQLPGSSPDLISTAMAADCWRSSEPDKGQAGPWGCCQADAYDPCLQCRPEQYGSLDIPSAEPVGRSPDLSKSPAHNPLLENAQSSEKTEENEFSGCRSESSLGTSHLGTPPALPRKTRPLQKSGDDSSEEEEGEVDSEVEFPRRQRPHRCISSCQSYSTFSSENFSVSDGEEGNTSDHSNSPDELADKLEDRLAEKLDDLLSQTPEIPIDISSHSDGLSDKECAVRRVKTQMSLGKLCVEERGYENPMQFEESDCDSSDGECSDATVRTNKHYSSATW"}, "[7]": {"target": "Alpha-1D adrenergic receptor (Homo sapiens) (UniProt P25100)", "details": "Compound concentration 10.0 uM"}, "[8]": {"target": "5-hydroxytryptamine receptor 2B (Homo sapiens, UniProt P41595)", "assay": "GPCRScan assay: inhibition of 5-HT2B", "set-up": "radioligand conc. used [nm] 1.0 – 2.0, parental cells stable HEK"}, "[9]": {"target": "D(2) dopamine receptor (Homo sapiens) (UniProt P14416)", "details": "Compound concentration 10.0 uM"}, "[10]": {"target": "5-hydroxytryptamine receptor 1E (Homo sapiens) (UniProt P28566)", "details": "Compound concentration 10.0 uM"}, "[11]": {"target": "Sigma intracellular receptor 2 (Homo sapiens) (UniProt Q5BJF2)", "sequence (Q5BJF2 whole entry)": "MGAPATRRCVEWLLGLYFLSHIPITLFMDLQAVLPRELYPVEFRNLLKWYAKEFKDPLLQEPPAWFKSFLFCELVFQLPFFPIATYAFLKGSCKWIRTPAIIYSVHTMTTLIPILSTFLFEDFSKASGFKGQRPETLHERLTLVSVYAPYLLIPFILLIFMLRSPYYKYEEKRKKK", "details": "Compound concentration 10.0 uM"}, "[12]": {"target": "Serine/threonine-protein kinase TAO2 (Homo sapiens) (UniProt Q9UL54)", "sequence (Q9UL54 whole entry)": "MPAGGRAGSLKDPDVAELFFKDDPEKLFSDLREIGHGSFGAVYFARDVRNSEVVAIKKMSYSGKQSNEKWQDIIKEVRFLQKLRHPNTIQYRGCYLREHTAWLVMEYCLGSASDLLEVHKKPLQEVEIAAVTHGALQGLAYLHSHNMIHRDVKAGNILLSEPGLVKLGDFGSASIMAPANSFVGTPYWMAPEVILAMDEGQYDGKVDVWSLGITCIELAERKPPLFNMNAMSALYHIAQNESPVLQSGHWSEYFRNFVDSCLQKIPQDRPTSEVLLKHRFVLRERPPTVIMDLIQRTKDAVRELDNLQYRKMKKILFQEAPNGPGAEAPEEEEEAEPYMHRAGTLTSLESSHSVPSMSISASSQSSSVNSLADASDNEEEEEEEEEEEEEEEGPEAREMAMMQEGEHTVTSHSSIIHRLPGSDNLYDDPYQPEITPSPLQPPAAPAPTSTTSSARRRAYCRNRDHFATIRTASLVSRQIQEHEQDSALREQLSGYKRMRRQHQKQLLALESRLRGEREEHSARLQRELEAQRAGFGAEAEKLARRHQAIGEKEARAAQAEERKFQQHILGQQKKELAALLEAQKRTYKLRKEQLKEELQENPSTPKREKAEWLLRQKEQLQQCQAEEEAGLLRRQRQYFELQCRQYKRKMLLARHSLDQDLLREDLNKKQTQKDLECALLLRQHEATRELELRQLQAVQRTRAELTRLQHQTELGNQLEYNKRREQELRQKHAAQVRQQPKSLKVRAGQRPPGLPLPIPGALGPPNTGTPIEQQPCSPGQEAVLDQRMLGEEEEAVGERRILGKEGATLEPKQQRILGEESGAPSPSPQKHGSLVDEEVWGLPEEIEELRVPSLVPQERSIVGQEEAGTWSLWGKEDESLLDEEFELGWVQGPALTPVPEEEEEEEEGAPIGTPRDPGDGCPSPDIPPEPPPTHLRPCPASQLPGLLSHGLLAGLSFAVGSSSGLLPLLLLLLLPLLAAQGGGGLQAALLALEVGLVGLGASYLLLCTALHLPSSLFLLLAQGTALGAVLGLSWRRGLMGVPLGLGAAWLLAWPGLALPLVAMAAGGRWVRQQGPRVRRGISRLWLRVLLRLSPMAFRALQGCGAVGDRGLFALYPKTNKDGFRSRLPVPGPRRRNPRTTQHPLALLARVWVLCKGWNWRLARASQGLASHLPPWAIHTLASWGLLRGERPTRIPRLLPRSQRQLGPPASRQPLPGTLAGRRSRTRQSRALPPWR"}, "[13]": {"target": "Serine/threonine-protein kinase Chk1 (Homo sapiens) (UniProt O14757)"}, "[14]": {"target": "GABA-A receptor; anion channel (Rattus norvegicus) (UniProt O09028+P15431+P18506+P18508+P19969+P20236+P23574+P23576+P28471+P28473+P30191+P62813+P63079+P63138+Q91ZM7+Q9ES14)", "details": "Compound concentration 10.0 uM"}, "[15]": {"target": "Calcium/calmodulin-dependent protein kinase kinase 1 (Homo sapiens) (UniProt Q8N5S9)"}, "[16]": {"target": "Mitogen-activated protein kinase kinase kinase 4 (Homo sapiens) (UniProt Q9Y6R4)", "sequence (Q9Y6R4 whole entry)": "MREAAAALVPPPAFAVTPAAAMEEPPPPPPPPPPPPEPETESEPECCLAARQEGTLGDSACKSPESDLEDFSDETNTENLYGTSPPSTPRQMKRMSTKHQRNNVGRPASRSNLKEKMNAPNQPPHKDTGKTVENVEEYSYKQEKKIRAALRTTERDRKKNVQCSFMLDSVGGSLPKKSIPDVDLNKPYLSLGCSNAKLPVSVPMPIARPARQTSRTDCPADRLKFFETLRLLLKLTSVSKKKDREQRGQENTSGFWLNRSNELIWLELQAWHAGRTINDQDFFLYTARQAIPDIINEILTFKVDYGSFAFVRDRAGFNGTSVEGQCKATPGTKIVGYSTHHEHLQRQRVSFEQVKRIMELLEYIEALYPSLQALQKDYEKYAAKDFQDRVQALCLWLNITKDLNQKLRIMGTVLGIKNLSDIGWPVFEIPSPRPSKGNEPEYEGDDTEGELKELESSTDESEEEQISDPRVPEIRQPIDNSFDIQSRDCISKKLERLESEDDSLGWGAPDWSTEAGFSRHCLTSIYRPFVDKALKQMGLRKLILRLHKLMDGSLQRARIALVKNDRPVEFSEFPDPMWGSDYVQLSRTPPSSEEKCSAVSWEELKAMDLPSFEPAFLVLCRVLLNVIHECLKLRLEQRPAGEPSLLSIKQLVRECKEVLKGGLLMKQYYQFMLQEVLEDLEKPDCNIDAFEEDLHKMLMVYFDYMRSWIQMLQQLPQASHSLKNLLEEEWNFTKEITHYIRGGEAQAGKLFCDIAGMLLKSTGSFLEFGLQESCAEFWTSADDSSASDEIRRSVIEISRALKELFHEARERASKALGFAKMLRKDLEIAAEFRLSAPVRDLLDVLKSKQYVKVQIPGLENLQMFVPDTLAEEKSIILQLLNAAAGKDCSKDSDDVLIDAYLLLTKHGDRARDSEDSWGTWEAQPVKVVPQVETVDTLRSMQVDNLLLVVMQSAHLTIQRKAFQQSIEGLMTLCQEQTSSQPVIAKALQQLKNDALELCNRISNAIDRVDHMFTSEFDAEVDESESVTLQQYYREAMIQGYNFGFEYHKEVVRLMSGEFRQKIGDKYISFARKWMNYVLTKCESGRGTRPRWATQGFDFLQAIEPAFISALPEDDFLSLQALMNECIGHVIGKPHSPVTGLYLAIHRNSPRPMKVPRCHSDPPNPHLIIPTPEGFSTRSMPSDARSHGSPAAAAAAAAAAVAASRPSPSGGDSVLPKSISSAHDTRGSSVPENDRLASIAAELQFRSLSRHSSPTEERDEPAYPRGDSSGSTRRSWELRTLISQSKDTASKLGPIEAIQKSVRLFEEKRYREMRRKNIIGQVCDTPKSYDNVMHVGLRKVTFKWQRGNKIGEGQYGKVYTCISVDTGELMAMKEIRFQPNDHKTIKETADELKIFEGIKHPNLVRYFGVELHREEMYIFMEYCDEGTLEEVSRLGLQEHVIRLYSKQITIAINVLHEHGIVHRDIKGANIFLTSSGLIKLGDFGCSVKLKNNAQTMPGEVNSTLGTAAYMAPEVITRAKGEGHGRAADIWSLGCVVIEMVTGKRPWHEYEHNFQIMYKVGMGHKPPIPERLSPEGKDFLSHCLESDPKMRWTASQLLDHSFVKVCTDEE"}, "[17]": {"target": "Serine/threonine-protein kinase ULK1 (Homo sapiens, UniProt O75385)", "assay": "Inhibition of ULK1 at compound concentration of 10.0 uM using the ScanMax (DiscoverX)"}, "[18]": {"target": "Dual specificity protein kinase CLK4 (Homo sapiens, UniProt Q9HAZ1)", "assay": "Inhibition of CLK4 at compound concentration of 10.0 uM using the ScanMax (DiscoverX)"}, "[19]": {"target": "Glycogen synthase kinase-3 alpha (Homo sapiens, UniProt P49840)", "assay": "Invitrogen kinase screen (GSK3A)"}, "[20]": {"target": "Serine/threonine-protein kinase MARK2 (Homo sapiens, UniProt Q7KZI7)", "assay": "Invitrogen kinase screen (MARK2)"}, "[21]": {"target": "T1, Mitogen-activated protein kinase 1 (Homo sapiens, UniProt P28482)", "T1 sequence (P28482 whole entry)": "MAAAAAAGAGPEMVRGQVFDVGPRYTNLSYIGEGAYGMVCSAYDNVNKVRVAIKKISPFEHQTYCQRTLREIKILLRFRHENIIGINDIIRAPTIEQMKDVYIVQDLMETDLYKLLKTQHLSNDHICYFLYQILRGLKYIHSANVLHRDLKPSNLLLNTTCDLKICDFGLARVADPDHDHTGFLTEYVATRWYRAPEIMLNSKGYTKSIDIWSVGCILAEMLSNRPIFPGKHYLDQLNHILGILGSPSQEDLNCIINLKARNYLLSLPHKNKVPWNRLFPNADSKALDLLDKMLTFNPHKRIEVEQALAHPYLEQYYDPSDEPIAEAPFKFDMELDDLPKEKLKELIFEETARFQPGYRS", "assay": "Cell Assay: Inhibition of RSK phosphorylation (pRSK with 40% mouse serum )"}, "[22]": {"target": "G protein-coupled receptor kinase 3 (Homo sapiens, UniProt P35626)", "assay": "Inhibition of GRK3 at compound concentration of 10.0 uM using the ScanMax (DiscoverX)"}, "[23]": {"assay": "NanoBRET (MAPK1, SGC Frankfurt)", "details": "Homo sapiens"}, "[24]": {"target": "T1, Mitogen-activated protein kinase 1"}, "[25]": {"assay": "NanoBRET (MAPK3, SGC Frankfurt)", "details": "Homo sapiens"}, "[26]": {"target": "Muscarinic acetylcholine receptor M1 (Homo sapiens) (UniProt P11229)", "details": "Compound concentration 10.0 uM"}, "[27]": {"target": "Serine/threonine-protein kinase haspin (Homo sapiens, UniProt Q8TF76)", "assay": "Inhibition of GSG2 at compound concentration of 10.0 uM using the ScanMax (DiscoverX)"}, "[28]": {"target": "cGMP-dependent protein kinase 2 (Homo sapiens, UniProt Q13237)", "assay": "Invitrogen kinase screen (PRKG2)"}, "[29]": {"target": "Serine/threonine-protein kinase 26 (Homo sapiens, UniProt Q9P289)", "assay": "Invitrogen kinase screen (STK26)"}, "[30]": {"target": "T1, Mitogen-activated protein kinase 1", "assay": "Cell Assay: Inhibition of RSK phosphorylation (pRSK with 40% human serum)"}, "[31]": {"target": "Serine/threonine-protein kinase TBK1 (Homo sapiens, UniProt Q9UHD2)", "assay": "Invitrogen kinase screen (TBK1)"}, "[32]": {"target": "Glycogen synthase kinase-3 beta (Homo sapiens, UniProt P49841)", "assay": "Invitrogen kinase screen (GSK3B)"}, "[33]": {"target": "Beta-2 adrenergic receptor (Homo sapiens) (UniProt P07550)", "details": "Compound concentration 10.0 uM"}, "[34]": {"target": "Cyclin-dependent kinase 2 (Homo sapiens, UniProt P24941)", "assay": "Invitrogen kinase screen (CDK2)"}, "[35]": {"target": "Dual specificity protein kinase CLK2 (Homo sapiens, UniProt P49760)", "assay": "Invitrogen kinase screen (CLK2)"}, "[36]": {"target": "T1, Mitogen-activated protein kinase 1", "assay": "Cell Assay: Inhibition of RSK phosphorylation (pRSK A375SM)", "assay_type": "cell-based, A375-SM"}, "[37]": {"target": "T1, Mitogen-activated protein kinase 1", "assay": "Invitrogen kinase screen (MAPK1)"}, "[38]": {"target": "5-hydroxytryptamine receptor 6 (Homo sapiens) (UniProt P50406)", "details": "Compound concentration 10.0 uM"}, "[39]": {"target": "Serine/threonine-protein kinase Sgk1 (Homo sapiens, UniProt O00141)", "assay": "Invitrogen kinase screen (SGK)"}, "[40]": {"target": "Cyclin-dependent kinase 7 (Homo sapiens, UniProt P50613)", "assay": "Inhibition of CDK7 at compound concentration of 10.0 uM using the ScanMax (DiscoverX)"}, "[41]": {"target": "5-hydroxytryptamine receptor 1B (Homo sapiens) (UniProt P28222)", "details": "Compound concentration 10.0 uM"}, "[42]": {"target": "Cyclin-dependent kinase 5 (Homo sapiens, UniProt Q00535)", "assay": "Invitrogen kinase screen (CDK5)"}, "[43]": {"details": "Compound concentration 1000.0 nM"}, "[44]": {"details": "Compound concentration 100.0 nM"}}, "note": "Active and inactive are the calls of the source. The calls are words filed in the database; no cut-off is given here."}
{"smiles": "C[C@H](NC(=O)Nc1cc2[nH]ncc2c(CO)n1)c1ccccn1", "note": "[ERKi-NC]", "values": [{"measurement": "inhibition", "setting": "[1]", "value": 12.8, "unit": "%"}, {"measurement": "residual activity", "setting": "[2]; [43]", "value": 100, "unit": "%"}, {"measurement": "residual activity", "setting": "[3]; [43]", "value": 100, "unit": "%"}, {"measurement": "inhibition", "setting": "[4]", "value": 2.71, "unit": "%"}, {"measurement": "residual activity", "setting": "[5]; [43]", "value": 76.3, "unit": "%"}, {"measurement": "residual activity", "setting": "[6]; [43]", "value": 100, "unit": "%"}, {"measurement": "inhibition", "setting": "[7]", "value": -7.9, "unit": "%"}, {"measurement": "Ki", "setting": "[8]", "value": 538, "unit": "nM"}, {"measurement": "inhibition", "setting": "[9]", "value": 17.7, "unit": "%"}, {"measurement": "inhibition", "setting": "[10]", "value": -8.44, "unit": "%"}, {"measurement": "inhibition", "setting": "[11]", "value": 20.8, "unit": "%"}, {"measurement": "residual activity", "setting": "[12]; [43]", "value": 82.3, "unit": "%"}, {"measurement": "residual activity", "setting": "[13]; [43]", "value": 100, "unit": "%"}, {"measurement": "inhibition", "setting": "[14]", "value": 25.5, "unit": "%"}, {"measurement": "residual activity", "setting": "[15]; [43]", "value": 100, "unit": "%"}, {"measurement": "residual activity", "setting": "[16]; [43]", "value": 53.1, "unit": "%"}]}
{"smiles": "C[C@@H](NC(=O)Nc1cc2[nH]ncc2c(CO)n1)c1ccccc1", "note": "[ERKi]", "values": [{"measurement": "Kd", "setting": "[17]", "value": "140 nM (not active)"}, {"measurement": "Kd", "setting": "[18]", "value": "230 nM (not active)"}, {"measurement": "IC50", "setting": "[19]", "value": "210 nM (not active)"}, {"measurement": "residual activity", "setting": "[2]; [44]", "value": 100, "unit": "%"}, {"measurement": "IC50", "setting": "[20]", "value": "1400 nM (not active)"}, {"measurement": "residual activity", "setting": "[3]; [44]", "value": 83.5, "unit": "%"}, {"measurement": "IC50", "setting": "[21]", "value": "788 nM (active)"}, {"measurement": "Kd", "setting": "[22]", "value": "140 nM (not active)"}, {"measurement": "EC50", "setting": "[23]", "value": "95 nM (active)"}, {"measurement": "IC50", "setting": "[23]", "value": "850 nM (active)"}, {"measurement": "Kd", "setting": "[24]", "value": "4.8 nM (active)"}, {"measurement": "EC50", "setting": "[25]", "value": "32 nM (active)"}, {"measurement": "IC50", "setting": "[25]", "value": 6690, "unit": "nM"}, {"measurement": "inhibition", "setting": "[26]", "value": -1.16, "unit": "%"}, {"measurement": "residual activity", "setting": "[5]; [44]", "value": 77, "unit": "%"}, {"measurement": "Kd", "setting": "[27]", "value": "130 nM (not active)"}, {"measurement": "IC50", "setting": "[28]", "value": "950 nM (not active)"}, {"measurement": "residual activity", "setting": "[6]; [44]", "value": 100, "unit": "%"}, {"measurement": "IC50", "setting": "[29]", "value": "880 nM (not active)"}, {"measurement": "IC50", "setting": "[30]", "value": "225 nM (active)"}, {"measurement": "IC50", "setting": "[31]", "value": "770 nM (not active)"}, {"measurement": "IC50", "setting": "[32]", "value": "540 nM (not active)"}, {"measurement": "inhibition", "setting": "[33]", "value": 1.36, "unit": "%"}, {"measurement": "IC50", "setting": "[34]", "value": "790 nM (not active)"}, {"measurement": "IC50", "setting": "[35]", "value": "940 nM (not active)"}, {"measurement": "IC50", "setting": "[36]", "value": "280 nM (active)"}, {"measurement": "IC50", "setting": "[37]", "value": "4 nM (active)"}, {"measurement": "inhibition", "setting": "[38]", "value": 8.67, "unit": "%"}, {"measurement": "IC50", "setting": "[39]", "value": "270 nM (not active)"}, {"measurement": "residual activity", "setting": "[12]; [44]", "value": 74.7, "unit": "%"}, {"measurement": "residual activity", "setting": "[13]; [44]", "value": 97.1, "unit": "%"}, {"measurement": "Kd", "setting": "[40]", "value": "230 nM (not active)"}, {"measurement": "residual activity", "setting": "[15]; [44]", "value": 87.5, "unit": "%"}, {"measurement": "inhibition", "setting": "[41]", "value": 4.23, "unit": "%"}, {"measurement": "IC50", "setting": "[42]", "value": "1200 nM (not active)"}, {"measurement": "residual activity", "setting": "[16]; [44]", "value": 100, "unit": "%"}]}
